Data: ChEMBL document CHEMBL1141419, “N-(5-Fluoro-2-phenoxyphenyl)-N-(2-[(131)I]iodo-5-me thoxybenzyl)acetamide: a potent iodinated radioligand for the peripheral-type benzodiazepine receptor in brain” (J Med Chem, 2007)

What was measured:
[1] = biological target: T1, Translocator protein (Rattus norvegicus, UniProt P16257); test: Displacement of [11C]DAA1106 from PBR in Sprague-Dawley rat brain; assay type: tissue-based
[2] = Distribution coefficient, log D at pH 7.4 by shake flask method; assay type: physicochemical; conditions: octanol/water
[3] = biological target: T1, Translocator protein; test: Displacement of [11C]PK-11195 from PBR in Sprague-Dawley rat brain; assay type: tissue-based
[4] = organism: Rattus norvegicus; test: Displacement of [11C]flumazenil from CBR in Sprague-Dawley rat brain
[5] = Ratio of drug level in olfactory bulb against striatum in Sprague-Dawley rat after 30 mins; assay type: ADME, tissue-based; conditions: in vivo, 0.5 h
[6] = Stability in iv dosed ddy mouse brain after 30 min; assay type: ADME, organism-based; conditions: read-out: Stability
[7] = Ratio of drug level in choroids plexus against striatum in Sprague-Dawley rat after 30 mins; assay type: ADME, tissue-based; conditions: in vivo, 0.5 h

T1 sequence (P16257 whole entry, looked up): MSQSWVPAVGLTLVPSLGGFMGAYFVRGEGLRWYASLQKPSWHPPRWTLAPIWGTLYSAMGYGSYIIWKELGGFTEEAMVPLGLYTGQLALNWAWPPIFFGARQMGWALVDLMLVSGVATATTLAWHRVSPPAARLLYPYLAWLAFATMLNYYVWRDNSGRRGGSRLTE

SMILES | IC50 [1] [nM] | logD [2] | IC50 [3] [nM] | IC50 [4] [nM] | Ratio [5] | remaining at 0.5 h [6] [%] | Ratio [7]
COc1ccc(I)c(CN(C(C)=O)c2cc(F)ccc2Oc2ccccc2)c1 | 7.8 | 4.42 | 4.4 | > 10000 |  |  | 
COc1ccc([131I])c(CN(C(C)=O)c2cc(F)ccc2Oc2ccccc2)c1 |  |  |  |  | 1.5 | 90 | 3.2
CCC(C)N(C)C(=O)c1cc2ccccc2c(-c2ccccc2Cl)n1 (centres undefined) |  |  |  | > 10000 |  |  | 
COc1ccc(OC)c(CN(C(C)=O)c2cc(I)ccc2Oc2ccccc2)c1 | 69.2 | 4.03 | 60.1 | > 10000 |  |  | 
COc1ccc(OC)c(CN(C(C)=O)c2cc(F)ccc2Oc2ccccc2)c1 |  |  | 1.3 | > 10000 |  |  | 
